Measurements reported in paper PMC4015918, “Conjugation to a SMAC mimetic potentiates sigma-2 ligand induced tumor cell death in ovarian cancer” (Molecular Cancer, 2014).

Columns and labels:
NIK = assay: Western blot for NF-қB-inducing kinase (NIK); format: cell-based; details: SKOV3 cells, 10 μM, 4 hours
Protocol: Figure 4 SW IV-134 engages in SMAC-dependent pathway activation. (A) SKOV3 cells were treated with vehicle only (Ctrl.), SW43 (10 μM), and SW IV-134 (10 μM) for 4 hours and cell lysates were subjected to Western blot analysis using antibodies against XIAP, cIAP-1, cIAP-2, NF-қB and NIK. While XIAP seems unaffected under the conditions used, cIAP-1 and cIAP-2 proteins are readily undetectable shortly post treatment. SW IV-134 treatment also leads to accumulation of NF-қB inducing kinase (NIK) and activation of NF-қB pathway. (B) SKOV3 cells were treated with SW IV-134 at the indicated doses either alone or in the presence of proteasome inhibitor MG132 (20 μM) for 18 hours. […] Cell viability was determined as described in the experimental methods (p < 0.011, Student’s t-test).
Cells were lysed in radioimmunoprecipitation assay buffer [50 mM Tris, 150 mM sodium chloride, 1.0 mM EDTA, 1% Nonidet P40, and 0.25% SDS (pH 7.0)], supplemented with complete protease inhibitor cocktail (Roche, Mannheim) and phosphatase inhibitor cocktail 1 (Sigma Chemical Co., St. Louis, MO). The protein concentration was determined using a BioRad Dc protein assay kit (Bio-Rad Laboratories, Hercules, CA). Lysates containing 30 μg of protein were run on a 12% polyacrylamide gel and transferred to a PVDF membrane (Bio-Rad Laboratories, Hercules, CA). […]

[1] = Adverse effects after 3 weeks of intraperitoneal treatment: necropsy, complete blood count, serum chemistries; format: in vivo, SCID mice; details: for Peritonitis at necropsy: also seen in vehicle treated mice
Protocol: In vivo experiments were conducted with 15 mice per treatment group. Treatment involved daily intraperitoneal injections with 90 μL of SW43 (7.5 mM stock), SW IV-134 (7.5 mM stock), or vehicle-only (25% cremophor in H2O) for 3 weeks. Tumor burden was monitored by bioluminescence imaging once a week during the treatment period. At the end of the treatment, 5 mice were randomly removed per treatment group and submitted for necropsy to the Washington University Department of Comparative Medicine. Blood samples were collected by intracardiac withdrawal prior to necropsy for chemistry and hematology work-up. In addition, various key organs were harvested for gross and histopathological examination. The remaining 10 mice from each treatment group were followed over time to examine overall survival. For survival studies, actual death or poor physical condition/large tumor size meeting criteria for euthanasia, constituted a death event.
Supplementary file 1476-4598-13-50-S6.pdf: Additional file 6: Table S2 Complete blood count and serum chemistries for severe combined immunodeficient (SCID) mice treated with SW IV-134, SW43, and vehicle control. SCID mice were treated daily with intra-peritoneal injections of SW IV-134, SW43, and vehicle control for 3 weeks. At the end of treatment, blood was collected from mice in each treatment group and analyzed for hemoglobin, white blood count, and platelets. Serum chemistries were also obtained to determine the levels of liver enzymes aspartate aminotransferase (AST) and alanine aminotransferase (ALT), renally cleared metabolites blood urea nitrogen (BUN) and creatinine, as well as total protein and glucose. The mice treated with SW134 were noted to have a statistically significant decrease in hemoglobin and an increase in white blood count compared to those treated with SW43 or vehicle control. Click here for file […]
Table S2: Complete b l o od count and ser um chemistries f or SCI D mice treated with SW IV-134, SW43, and vehicle. SC ID m ic e were treated daily with intra- peritoneal injections of SW 134, SW 43, and vehicle control fo r 3 weeks. At the end of treatment, bloo d was co lle ct ed from mice in each treatment gro up and analyzed for hemoglobin, w hit e bloo d co un t , and plate lets. S e r um chemistries were also obtained to determine the levels of l iv e r enzymes as pa rt at e aminotransferase ( A ST ) and alanine aminotransferase (ALT), renally cleared metabolites blood urea nitrogen ( BUN) and creatinine, as well as tot al protein a nd gl uco s e. The mice treated w it h SW IV- 134 were no te d to have a statistically significant decrease in hemoglobin and an increase in w hit e bloo d co u nt compared to those treated with SW43 or vehicle control.

[2] = SCID mice, daily i.p. 3 weeks, end of treatment

| SMILES | Accumulation of NIK (NIK) | ALT, mean [1, 2] [u/L] | BUN, mean [1, 2] [mg/dL] | Creatinine, mean [1, 2] [mg/dL] | Hemoglobin, mean [1, 2] [g/dL] | Total bilirubin, mean [1, 2] [mg/dL] | Total protein, mean [1, 2] [g/dL] | WBC, mean [1, 2] | Peritonitis at necropsy ([1]; i.p. daily for 3 weeks) | AST, mean [1, 2] [u/L] | Glucose, mean [1, 2] [mg/dL] | Platelet, mean [1, 2] | Splenomegaly ([1]; i.p. daily for 3 weeks) |
| --- | --- | --- | --- | --- | --- | --- | --- | --- | --- | --- | --- | --- | --- |
| COc1ccc(C)cc1NC(=O)OC1CC2CCCC(C1)N2CCCCCCCCCCN (stereo not shown) [SW43, reference compound] | not seen | 56.0 | 22.3 | 0.3 | 11.7 | 0.1 | 5.8 | 3.2 103 /µl | mild to moderate peritonitis |  |  |  |  |
| COc1ccc(C)cc1NC(=O)OC1CC2CCCC(C1)N2CCCCCCCCCCN[C@@H](C)C(=O)N[C@H](C(=O)N1CCC[C@H]1C(=O)N[C@@H]1CCCc2ccccc21)C(C)(C)C (stereo partly shown) [SW IV-134] | accumulation of NIK | 84.0 | 24.8 | 0.4 | 9.5 | 0.1 | 6.0 | 19.3 103 /µl | mild to moderate peritonitis | 91.4 | 103.6 | 1063.8 103 /µl | mild splenomegaly |
